Values joined by “and” are separate entries in the source; they are usually repeats but may differ in a detail not shown here. Equal entries are not always repeated. Where two headings read alike, the source gives them in different places. Marks after values point to notes of the source that are not given here.
Tests used:
Assay in all cases: cell-based
LasR [1] = target: T1, LasR (Pseudomonas aeruginosa, UniProt P25084); settings: for E. coli-LasR Activation [%]: 5 μM ligand; for E. coli-LasR Activation [%] / activation at 5 µM: E. coli DH5α (pJN105L pSC11), normalized to OdDHL; for activation at 5 µM: read-out: E. coli-LasR Activation [%], 5 μM ligand; for Activation (%): E. coli-LasR, Library C primary agonism screen
T1 construct: expressed in transfected cells; host or cells: E. coli DH5α (pJN105L pSC11), arabinose-induced
T1 sequence (P25084 whole entry): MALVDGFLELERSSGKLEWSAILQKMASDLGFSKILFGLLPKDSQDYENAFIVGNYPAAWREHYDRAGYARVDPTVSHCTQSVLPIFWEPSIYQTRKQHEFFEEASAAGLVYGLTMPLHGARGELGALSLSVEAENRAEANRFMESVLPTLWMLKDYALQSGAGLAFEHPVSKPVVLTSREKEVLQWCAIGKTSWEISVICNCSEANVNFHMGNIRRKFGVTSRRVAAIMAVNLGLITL
Experimental: (§1) E. coli LasR reporter gene assay protocols. […] An overnight culture of E. coli DH5a (pJN105L pSC11) grown at 37° C. was subculture by diluting 1/10 in fresh LB medium containing 100 μg/mL ampicillin and 15 μg/mL gentamicin and shaking at 37° C. until OD600=0.3. Arabinose (4 mg/mL) was then added to induce the LasR promoter and a 200 μL-portion of this culture was added to each well of the multititer plate containing AHLs. Plates were grown at 37° C. for 2 hours in a rotary shaking incubator (200 rpm; OD600=0.45). The cultures were then assayed for activity following the identical β-galactosidase assay protocols used in the A. tumefaciens reporter gene assays.
(§2) Dose response reporter gene assays. […] IC50 and EC50 values were calculated using GraphPad Prism software (v. 4.0) using a sigmoidal curve fit.
(§3) E. coli LasR reporter gene assay protocols. […] An overnight culture of E. coli DH5α (pJN105L pSC11) was diluted 1:10 with fresh LB medium containing 100 μg/mL ampicillin and 15 μg/mL gentamicin. This sub-culture was incubated at 37° C. until OD600=0.3 (4-6 h). Arabinose (4 mg/mL) was then added to induce the LasR promoter, and a 200 μL portion of this culture was added to each well of the multititer plate containing AHLs. Plates were incubated at 37° C. until OD600=0.45 (4-6 h). The cultures were then assayed for LasR activity following the identical β-galactosidase assay protocols used in the A. tumefaciens reporter gene assays (see above).
as §2

LasR [2] = target: T1, LasR; format: cell-based; settings: for E. coli-LasR Inhibition [%]: 5 μM synthetic ligand against 7.5 nM OdDHL; for E. coli-LasR Inhibition [%] / inhibition at 5 µM: E. coli DH5α (pJN105L pSC11), normalized to OdDHL; for inhibition at 5 µM: read-out: E. coli-LasR Inhibition [%], 5 μM synthetic ligand against 7.5 nM OdDHL; for Inhibition (%): E. coli-LasR, Library C primary antagonism screen
Experimental: as §1, §2, §3, §2

LuxR [3] = target: T2, LuxR (Aliivibrio fischeri, UniProt P35327); format: cell-based, Vibrio fischeri; settings: for V. fischeri-LuxR Inhibition [%]: 5 μM synthetic ligand against 5 μM OHHL; for V. fischeri-LuxR Inhibition [%] / inhibition at 5 µM: V. fischeri ES114 (Δ-luxI), normalized to OHHL; for inhibition at 5 µM: read-out: V. fischeri-LuxR Inhibition [%], 5 μM synthetic ligand against 5 μM OHHL; for Inhibition (%): V. fischeri-LuxR, Library C primary antagonism screen
T2 construct: a Δ-luxI derivative of V. fischeri ES114, in which the native lux operon behaves as the bioluminescent reporter; endogenous in cells; host or cells: V. fischeri ES114 (Δ-luxI)
T2 sequence (P35327 whole entry): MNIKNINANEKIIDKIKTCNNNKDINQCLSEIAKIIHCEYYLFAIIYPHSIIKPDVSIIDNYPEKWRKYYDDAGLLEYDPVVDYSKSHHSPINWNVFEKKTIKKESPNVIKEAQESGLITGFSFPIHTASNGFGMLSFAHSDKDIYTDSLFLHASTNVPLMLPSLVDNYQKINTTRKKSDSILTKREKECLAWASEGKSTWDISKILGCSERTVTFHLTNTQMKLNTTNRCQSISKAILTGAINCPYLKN
Experimental: (§4) Luminescence assays. For agonism assays, an appropriate amount of AHL stock solution was added into a 96-well plate. An overnight culture of E. coli or V. fischeri was diluted 1:10 with appropriate media (LB plus 10 μg/mL tetracycline for E. coli; LBS for V. fischeri). A 200-μL portion of the diluted culture was added to each well of the plate. Plates were grown for 4-8 h with shaking (200 rpm; 30° C. for E. coli and RT for V. fischeri). Luminescence was measured using a multilabel plate reader and normalized to cell density. […] All assays were performed in triplicate. Graphpad Prism software was used to calculate IC50 and EC50 values.
(§5) Vibrio fischeri assay procedures. […] An overnight culture of V. fischeri ES114 (WT, Δ-luxI or Δ-luxR) was diluted 1:10 with LBS medium. A-200 μL portion of the diluted culture was added to each well of the plate. Plates were grown at RT with shaking (200 rpm) until the OD600=0.35-0.4 (4-6 h). Luminescence then was measured and normalized to cell density per well. […] All assays were performed in triplicate. IC50 and EC50 values were calculated using GraphPad Prism software using a sigmoidal curve fit.
(§6) V. fischeri reporter gene assay protocols. […] An overnight culture of V. fischeri ES114 (D-luxI) was diluted 1:10 with LBS medium. A 200-μL portion of the diluted culture was added to each well of the multititer plate. Plates were grown at RT with shaking (200 rpm) until the OD600=0.35-0.4 (4-6 h). Luminescence then was measured and normalized to cell density per well.
as §2
(§7) V. fischeri reporter gene assay protocols. […] An overnight culture of V. fischeri ES114 (Δ-luxI) was diluted 1:10 with LBS medium. A200 μL portion of the diluted culture was added to each well of the multititer plate. Plates were incubated at RT until the OD600=0.35-0.4 (4-6 h). Luminescence then was measured and normalized to cell density per well.
as §2

LuxR [4] = target: T2, LuxR; parameters: species or system Vibrio fischeri; settings: for V. fischeri-LuxR Activation [%]: 200 μM ligand; for V. fischeri-LuxR Activation [%] / activation at 200 µM: V. fischeri ES114 (Δ-luxI), normalized to OHHL; for activation at 200 µM: read-out: V. fischeri-LuxR Activation [%], 200 μM ligand; for Activation (%): V. fischeri-LuxR, Library C primary agonism screen
Experimental: as §4, §5, §6, §2, §7, §2

TraR = target: T3, TraR (Agrobacterium tumefaciens, UniProt P33905); settings: for A. tumefaciens-TraR Activation [%]: 10 μM ligand; for A. tumefaciens-TraR Activation [%] / A. tumefaciens-TraR Inhibition [%] / inhibition at 10 µM: A. tumefaciens WCF47 (pCF372), normalized to OOHL; for A. tumefaciens-TraR Inhibition [%]: 10 μM synthetic ligand against 100 nM OOHL; for activation at 10 µM: read-out: A. tumefaciens-TraR Activation [%]; for inhibition at 10 µM: read-out: A. tumefaciens-TraR Inhibition [%], 10 μM synthetic ligand against 100 nM OOHL; for Activation (%) / Inhibition (%): A. tumefaciens-TraR; for Activation (%): Library C primary agonism screen; for Inhibition (%): Library C primary antagonism screen
T3 construct: These strains lack their AHL synthase (I) genes, but retain their native R genes; endogenous in cells; host or cells: A. tumefaciens WCF47 (Δ-traI) with PtraI-lacZ plasmid pCF372
T3 sequence (P33905 whole entry): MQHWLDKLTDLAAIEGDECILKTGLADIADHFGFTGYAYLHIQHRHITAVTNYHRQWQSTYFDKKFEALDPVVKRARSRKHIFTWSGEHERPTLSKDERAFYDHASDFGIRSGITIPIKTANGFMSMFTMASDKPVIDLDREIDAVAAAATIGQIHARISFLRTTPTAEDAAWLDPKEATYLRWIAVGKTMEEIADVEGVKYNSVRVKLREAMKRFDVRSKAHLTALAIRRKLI
Experimental: A. tumefaciens reporter gene assay protocols. […] An overnight culture of A. tumefaciens WCF47 (pCF372) was diluted to an OD600 of 0.1 in fresh AB minimal medium containing 400 μg/mL octopine and 50 μg/mL streptomycin. A 200 μL-portion of the diluted culture was added to each well of the multititer plate containing AHLs. Plates were grown at 28° C. for 18-20 h in a rotary shaking incubator (200 rpm). The cultures were then assayed for β-galactosidase activity following the Miller assay method. Briefly, 200 μL aliquots of bacteria from each of the wells were added to wells of a polystyrene 96-well plate and the OD600 of each well was recorded. Next, 50 μL aliquots from each well were transferred to a solvent resistant 96-well plate containing 200 μL Z buffer, 8 μL CHCl3 and 4 μL 0.1% aq. sodium dodecylsulfate (SDS). This suspension was mixed via repetitive pipetting, after which the CHCl3 was allowed to settle. A 100-μL aliquot from each well was transferred to a fresh polystyrene 96-well plate, and 20 μL of substrate, o-nitrophenyl-β-D-galactopyranoside (ONPG, 4 μg/mL in phosphate buffer), was added at time zero. After the development of appropriate yellow color (ca. 15-35 min), the reaction was terminated by the addition of 50 μL of 1 M Na2CO3. Absorbance at 420 nm and 550 nm was measured for each well using a plate reader, and Miller units were calculated according to standard methods.
as §2
A. tumefaciens reporter gene assay protocols. […] An overnight culture of A. tumefaciens WCF47 (pCF372) was diluted 1:10 with fresh AB minimal medium containing 400 μg/mL octopine and 50 μg/mL streptomycin. A 200 μL portion of the diluted culture was added to each well of the multititer plate containing AHLs. Plates were incubated at 28° C. for 18-24 h. The cultures were then assayed for β-galactosidase activity following the Miller assay method. Briefly, 200 μL aliquots of bacteria from each of the wells were added to wells of a 96-well multititer plate, and the OD600 of each well was recorded. Next, 50 μL aliquots from each well were transferred to a solvent resistant 96-well multititer plate containing 200 μL Z buffer, 8 μL CHCl3 and 4 μL 0.1% aq. SDS. This suspension was mixed via repetitive pipetting, after which the CHCl3 was allowed to settle. A 100 μL aliquot from each well was transferred to a fresh 96-well multititer plate, and 20 μL of substrate, o-nitrophenyl-β-D-galactopyranoside (ONPG, 4 μg/mL in phosphate buffer), was added at time zero. After the development of appropriate yellow color (ca. 20-30 min), the reaction was terminated by the addition of 50 μL of 1 M Na2CO3. Absorbances at 420 nm and 550 nm were measured for each well using a plate reader, and Miller units were calculated according to standard methods.
as §2

Row | Compound | E. coli-LasR Activation [%] (LasR [1]) | E. coli-LasR Inhibition [%] (LasR [2]) | V. fischeri-LuxR Inhibition [%] (LuxR [3]) | V. fischeri-LuxR Activation [%] (LuxR [4]) | A. tumefaciens-TraR Activation [%] (TraR) | A. tumefaciens-TraR Inhibition [%] (TraR) | Activation (%) (LasR [1]) | Inhibition (%) (LasR [2]) | Inhibition (%) (LuxR [3]) | Activation (%) (LuxR [4]) | Activation (%) (TraR) | Inhibition (%) (TraR) | other results
1 | O=C(Cc1ccccc1[N+](=O)[O-])N[C@H]1CCOC1=O [B18] | 0 | 17 | 23 | 4 | 0 | 1 | – | – | – | – | – | – | –
2 | CCCCCCCCCC(=O)NC1CCOC1=O (stereo not shown) [A4, C10 AHL] | – | – | – | – | – | – | – | – | – | – | – | – | EC50 (LasR [1]): > 200000 nM; activation at 5 µM (LasR [1]): ≤ 44%; IC50 (LasR [2]): 250 nM; LasR: concentration at which the compound elicits its maximal inhibition (value in parentheses) (LasR [2]; against 7.5 nM OdDHL, dose response curve did not reach 100% inhibition): (2.0)^f μM; inhibition at 5 µM (LasR [2]): 34%; IC50 (LuxR [3]; LuxR IC50, determined against 5 μM OHHL): 900 nM and 400 nM; inhibition at 5 µM (LuxR [3]): 96%; activation at 200 µM (LuxR [4]): 1%; IC50 (TraR): 1050 nM; activation at 10 µM (TraR): 2%; inhibition at 10 µM (TraR): 92%
3 | 4-hydroxy PHL [C23] | – | – | – | – | – | – | 0 | 7 | 12 | 2 | 0 | 3 | –
4 | O=C(Cc1ccc(C(F)(F)F)cc1)N[C@H]1CCOC1=O [C20, 4-trifluoromethyl PHL] | – | – | – | – | – | – | 0 | 26 | 78 | 3 | 2 | 92 | IC50 (TraR; determined against 100 nM OOHL, read-out: TraR IC50): 810 nM
5 | O=C(Cc1ccc([N+](=O)[O-])cc1)NC1CCOC1=O (stereo not shown) [B16, 4-nitro PHL] | – | – | – | – | – | – | – | – | – | – | – | – | activation at 5 µM (LasR [1]): 0%; inhibition at 5 µM (LasR [2]): 27%; inhibition at 5 µM (LuxR [3]): 47%; activation at 200 µM (LuxR [4]): ~25%; IC50 (TraR): 2250 nM; activation at 10 µM (TraR): 1%; inhibition at 10 µM (TraR): ~90%
6 | 4-methyl PHL [B24] | 0 | 11 | 58 | 1 | 3 | 21 | – | – | – | – | – | – | –
7 | CC(C)(C)OC(=O)NCc1ccc(C(=O)N[C@H]2CCOC2=O)cc1 [A21] | 0 | 12 | 35 | 1 | 0 | 13 | – | – | – | – | – | – | –
8 | O=C(Cc1ccc(N=Nc2ccccc2)cc1)NC1CCOC1=O (stereo not shown) [B22] | 1 | 13 | 63 | 3 | 0 | 9 | – | – | – | – | – | – | –
9 | COc1ccc(CC(=O)N[C@H]2CCOC2=O)cc1 [C24] | – | – | – | – | – | – | 0 | 16 | 57 | 3 | 0 | 26 | –
10 | CCOc1ccc(CC(=O)N[C@H]2CCOC2=O)cc1 [B29] | 0 | 15 | 55 | 2 | 0 | 35 | – | – | – | – | – | – | –
